pIC50: −log10 of the molar value.
The compounds below were run against T1, AHR (UniProt P35869) (assay: DRE-Luciferase Reporter Assay (Alternate Method) (Example 1B)). Conditions: cell line and AHR activating ligand not specified.
T1 construct: IC50
T1 sequence (P35869 1-848): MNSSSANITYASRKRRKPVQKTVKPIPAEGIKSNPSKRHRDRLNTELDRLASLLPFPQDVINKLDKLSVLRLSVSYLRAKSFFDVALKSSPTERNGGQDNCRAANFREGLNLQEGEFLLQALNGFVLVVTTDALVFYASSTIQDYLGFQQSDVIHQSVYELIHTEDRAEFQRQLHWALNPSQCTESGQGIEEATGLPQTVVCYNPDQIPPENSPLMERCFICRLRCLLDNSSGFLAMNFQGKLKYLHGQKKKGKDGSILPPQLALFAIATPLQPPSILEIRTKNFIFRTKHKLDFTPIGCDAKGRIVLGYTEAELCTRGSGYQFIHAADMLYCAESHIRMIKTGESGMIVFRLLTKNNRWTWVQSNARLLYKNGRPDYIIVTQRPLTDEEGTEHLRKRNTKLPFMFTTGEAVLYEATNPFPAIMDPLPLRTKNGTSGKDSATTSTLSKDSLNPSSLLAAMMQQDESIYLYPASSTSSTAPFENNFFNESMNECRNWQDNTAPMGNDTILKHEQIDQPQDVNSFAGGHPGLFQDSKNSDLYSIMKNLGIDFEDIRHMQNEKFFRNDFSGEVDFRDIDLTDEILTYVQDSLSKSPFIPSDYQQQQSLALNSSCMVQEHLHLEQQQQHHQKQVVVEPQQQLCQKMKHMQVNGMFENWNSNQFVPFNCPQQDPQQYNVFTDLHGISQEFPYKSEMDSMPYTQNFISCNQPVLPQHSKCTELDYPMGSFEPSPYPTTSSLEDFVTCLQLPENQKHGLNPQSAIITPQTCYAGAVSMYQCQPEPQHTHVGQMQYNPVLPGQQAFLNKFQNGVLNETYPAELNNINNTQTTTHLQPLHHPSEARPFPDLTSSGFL
Format: cell-based, murine or human
Procedure: AHR binds to Dioxin Responsive Elements (DRE) upstream of genes that it activates. One measure of AHR activity is activation of a reporter gene, such as luciferase, downstream of one or multiple DRE elements. Luciferase activity will reflect activation and inhibition of AHR in the cells expressing his reporter.
Murine Hepa1-6 or Hepa-1c1c7 or other murine cell line with a DRE-luciferase reporter either stably or transiently transfected were plated in media in plates (96-well, 384-well or other plates) and incubated overnight at 37° C. in a CO2 incubator or compound and agonist were added at the time of plating. Likewise, human HepG2 or other human cell line with a DRE-luciferase reporter either stably or transiently transfected were plated in media in plates (96-well, 384-well or other plates) and incubated overnight at 37° C. in a CO2 incubator or compound and agonist were added at the time of plating.
At the time that cells are plated or following incubation overnight, an AHR activating ligand, such as TCDD, kynurenine, ITE (2-(1H-indole-3-ylcarbonyl)-4-thiazolecarboxylic methyl ester), VAF347, BNF (beta-naphthoflavone), FICZ (6-formylindolo(3,2-b) carbazole or other AHR ligands, was added with or without AHR antagonist.
Cells were incubated for 4, 15 or 24 hours or another time point and then lysed for determination of luciferase activity as a read-out of the AHR activation or inhibition. Luciferase was measured with a commercial kit such as the Promega Luciferase kit or any kit or reagents that provide the luciferin substrate for measuring luciferase activity. The level of luciferase with only activating ligand added was the maximum signal while the luciferase with no ligand was the minimum signal. IC50 values were determined as the concentration which inhibits half of the luciferase activity.
For `Oc1ccc(CCNc2cc(-c3cncc(F)c3)nc3ccnn23)cc1` [I-49, 4-[2-[[5-(5-Fluoro-3-pyridyl)pyrazolo[1,5-a]pyrimidin-7-yl]amino]ethyl]phenol], the pIC50 was greater than 6.30.
With `Fc1cncc(-c2cc(NC3Cc4cc5c(cc4C3)OCO5)n3nccc3n2)c1` [I-50, N-(6,7-Dihydro-5H-cyclopenta[f][1,3]benzodioxol-6-yl)-5-(5-fluoro-3-pyridyl)pyrazolo[1,5-a]pyrimidin-7-amine] the pIC50 was less than 5.82.
`Cc1cnn2c(NC3Cc4ccc(O)cc4C3)cc(-c3cncc(F)c3)nc12` (centres unmarked) [I-51, 2-[[5-(5-Fluoro-3-pyridyl)-3-methyl-pyrazolo[1,5-a]pyrimidin-7-yl]amino]indan-5-ol] gave a pIC50 greater than 6.30.
Work on `Oc1ccc2c(c1)CC(Nc1cc(-c3cncc(F)c3)nc3ccnn13)C2` (centres unmarked) [I-52, 2-[[5-(5-Fluoro-3-pyridyl)pyrazolo[1,5-a]pyrimidin-7-yl]amino]indan-5-ol] yielded a pIC50 of 6.00 to 6.30.
`N#Cc1cncc(-c2nc(NCCc3c[nH]c4ccccc34)cc(OC3CCCC3)n2)c1` [I-53, 5-[4-(Cyclopentoxy)-6-[2-(1H-indol-3-yl)ethylamino]pyrimidin-2-yl]pyridine-3-carbonitrile] was tested, and the pIC50 was greater than 6.30.
With `CC(C)Oc1cc(NCCc2c[nH]c3ccccc23)nc(-c2cncc(C#N)c2)n1` [I-54, 5-[4-[2-(1H-indol-3-yl)ethylamino]-6-isopropoxy-pyrimidin-2-yl]pyridine-3-carbonitrile] the pIC50 was greater than 6.30.
With `O=C(c1cnn2c(NCCc3c[nH]c4ccccc34)cc(-c3cncc(F)c3)nc12)N1CCCCC1` [I-55, [5-(5-Fluoro-3-pyridyl)-7-[2-(1H-indol-3-yl)ethylamino]pyrazolo[1,5-a]pyrimidin-3-yl]-(1-piperidyl)methanone] the pIC50 was greater than 6.30.
For `CN(C)C(=O)c1cnn2c(NCCc3c[nH]c4ccccc34)cc(-c3cncc(F)c3)nc12` [I-56, 5-(5-Fluoro-3-pyridyl)-7-[2-(1H-indol-3-yl)ethylamino]-N,N-dimethyl-pyrazolo[1,5-a]pyrimidine-3-carboxamide], the pIC50 was greater than 6.30.
`O=C(c1cnn2c(NCCc3c[nH]c4ccccc34)cc(-c3cncc(F)c3)nc12)N1CCNCC1` [I-58, [5-(5-Fluoro-3-pyridyl)-7-[2-(1H-indol-3-yl)ethylamino]pyrazolo[1,5-a]pyrimidin-3-yl]-piperazin-1-yl-methanone] was tested, and the pIC50 was less than 5.82.
`Fc1cncc(-c2nc(NCCc3c[nH]c4ccccc34)cc(N3CCNCC3)n2)c1` [I-60, 2-(5-Fluoro-3-pyridyl)-N-[2-(1H-indol-3-yl)ethyl]-6-piperazin-1-yl-pyrimidin-4-amine] was tested, and the pIC50 was 6.00 to 6.30.
Compound `CNC(=O)c1cnn2c(NCCc3c[nH]c4ccccc34)cc(-c3cncc(F)c3)nc12` [I-61, 5-(5-Fluoro-3-pyridyl)-7-[2-(1H-indol-3-yl)ethylamino]-N-methyl-pyrazolo[1,5-a]pyrimidine-3-carboxamide] has a pIC50 greater than 6.30.
`Fc1cncc(-c2nc(NCCc3c[nH]c4ccccc34)cc(N3CCCCC3)n2)c1` [I-62, 2-(5-Fluoro-3-pyridyl)-N-[2-(1H-indol-3-yl)ethyl]-6-(1-piperidyl)pyrimidin-4-amine] was tested, and the pIC50 was greater than 6.30.
With `CN(C)c1cc(NCCc2c[nH]c3ccccc23)nc(-c2cncc(F)c2)n1` [I-63, 2-(5-Fluoro-3-pyridyl)-N6-[2-(1H-indol-3-yl)ethyl]-N4,N4-dimethyl-pyrimidine-4,6-diamine] the pIC50 was greater than 6.30.
With `Fc1cncc(-c2nc(NCCc3c[nH]c4ccccc34)cc(N3CCOCC3)n2)c1` [I-64, 2-(5-Fluoro-3-pyridyl)-N-[2-(1H-indol-3-yl)ethyl]-6-morpholino-pyrimidin-4-amine] the pIC50 was greater than 6.30.
`Cc1[nH]c2c(F)cccc2c1CCNc1cc(-c2cncc(F)c2)nc2c(C(C)C)cnn12` [I-66, N-[2-(7-fluoro-2-methyl-1H-indol-3-yl)ethyl]-5-(5-fluoro-3-pyridyl)-3-isopropyl-pyrazolo[1,5-a]pyrimidin-7-amine] showed a pIC50 greater than 6.30.
`Cc1[nH]c2ccc(F)cc2c1CCNc1nc(-c2cncc(F)c2)nc2c1ncn2C(C)C` [I-69, N-[2-(5-Fluoro-2-methyl-1H-indol-3-yl)ethyl]-2-(5-fluoro-3-pyridyl)-9-isopropyl-purin-6-amine] was tested, and the pIC50 was greater than 6.30.
With `Cc1[nH]c2c(F)cccc2c1CCNc1nc(-c2cncc(F)c2)nc2c1ncn2C(C)C` [I-71, N-[2-(7-Fluoro-2-methyl-1H-indol-3-yl)ethyl]-2-(5-fluoro-3-pyridyl)-9-isopropyl-purin-6-amine] the pIC50 was greater than 6.30.
For `Cc1[nH]c2c(F)cc(F)cc2c1CCNc1cc(OC(C)C)nc(-c2cncc(F)c2)n1` [I-74, N-[2-(5,7-Difluoro-2-methyl-1H-indol-3-yl)ethyl]-2-(5-fluoro-3-pyridyl)-6-isopropoxy-pyrimidin-4-amine], the pIC50 was 6.00 to 6.30.
`CC(C)c1cnn2c(N[C@H]3CCc4[nH]c5ccccc5c4C3)cc(-c3cncc(F)c3)nc12` [I-75b, (3S)—N-[5-(5-Fluoro-3-pyridyl)-3-isopropyl-pyrazolo[1,5-a]pyrimidin-7-yl]-2,3,4,9-tetrahydro-1H-carbazol-3-amine] showed a pIC50 of less than 5.82.
`Cc1[nH]c2ccccc2c1CCNc1nc(-c2cncc(F)c2)nc2c1ncn2C(C)C` [I-79, 2-(5-Fluoro-3-pyridyl)-9-isopropyl-N-[2-(2-methyl-1H-indol-3-yl)ethyl]purin-6-amine] gave a pIC50 greater than 6.30.
Compound `CC(C)Oc1nc(NCCc2c[nH]c3ccccc23)cc(-c2cncc(F)c2)n1` [I-80, 6-(5-Fluoro-3-pyridyl)-N-[2-(1H-indol-3-yl)ethyl]-2-isopropoxy-pyrimidin-4-amine] has a pIC50 of 6.00 to 6.30.
Compound `Cc1nn2c(NCCc3c[nH]c4ccccc34)cc(-c3cncc(F)c3)nc2c1C(C)C` [I-83, 5-(5-Fluoro-3-pyridyl)-N-[2-(1H-indol-3-yl)ethyl]-3-isopropyl-2-methyl-pyrazolo[1,5-a]pyrimidin-7-amine] has a pIC50 greater than 6.30.
`Cc1nn2c(NCCc3c(C)[nH]c4c(F)cc(F)cc34)cc(-c3cncc(F)c3)nc2c1C(C)C` [I-84, N-[2-(5,7-Difluoro-2-methyl-1H-indol-3-yl)ethyl]-5-(5-fluoro-3-pyridyl)-3-isopropyl-2-methyl-pyrazolo[1,5-a]pyrimidin-7-amine] was tested, and the pIC50 was less than 5.82.
For `Cc1[nH]c2c(F)cc(F)cc2c1CCNc1cc(-c2cncc(F)c2)nc2ccnn12` [I-85, N-(2-(5,7-Difluoro-2-methyl-1H-indol-3-yl)ethyl)-5-(5-fluoropyridin-3-yl)pyrazolo[1,5-a]pyrimidin-7-amine], the pIC50 was 6.00 to 6.30.
With `Fc1cncc(-c2cc(NCCc3c[nH]c4ccccc34)n3ncc(C4CC4)c3n2)c1` [I-86, 3-Cyclopropyl-5-(5-fluoro-3-pyridyl)-N-[2-(1H-indol-3-yl)ethyl]pyrazolo[1,5-a]pyrimidin-7-amine] the pIC50 was greater than 6.30.
For `Cc1[nH]c2c(F)cc(F)cc2c1CCNc1cc(-c2cncc(F)c2)nc2c(C3CC3)cnn12` [I-87, 3-Cyclopropyl-N-(2-(5,7-difluoro-2-methyl-1H-indol-3-yl)ethyl)-5-(5-fluoropyridin-3-yl)pyrazolo[1,5-a]pyrimidin-7-amine], the pIC50 was greater than 6.30.
Compound `CC(C)Oc1cc(NCCc2c[nH]c3c(F)cc(F)cc23)nc(-c2cncc(F)c2)n1` [I-88, N-[2-(5,7-Difluoro-1H-indol-3-yl)ethyl]-2-(5-fluoro-3-pyridyl)-6-isopropoxy-pyrimidin-4-amine] has a pIC50 of 6.00 to 6.30.
`Cc1[nH]c2ccccc2c1CCNc1cc(-c2cncc(F)c2)nc2c(C(C)C)cnn12` [I-89, 5-(5-fluoro-3-pyridyl)-3-isopropyl-N-[2-(2-methyl-1H-indol-3-yl)ethyl]pyrazolo[1,5-a]pyrimidin-7-amine] showed a pIC50 greater than 6.30.
`Cc1[nH]c2c(F)cc(F)cc2c1CCNc1cc(-c2cncc(F)c2)nc2c(C(C)(C)C)cnn12` [I-91, 3-tert-Butyl-N-[2-(5,7-difluoro-2-methyl-1H-indol-3-yl)ethyl]-5-(5-fluoro-3-pyridyl)pyrazolo[1,5-a]pyrimidin-7-amine] showed a pIC50 greater than 6.30.

— US11358969B2, “Indole AHR inhibitors and uses thereof” (Ikena Oncology, Inc., priority 2017, dated 2022)
